BindingDB's records for doi:10.1074/jbc.M004512200 (Schering-Plough Research Institute, 2000)
Where “and” joins values, the source holds several entries; their conditions need not be identical. Equal values may be shown once.

What was measured:
[1] = target: T1, Leukotriene B4 receptor 2 (Homo sapiens, UniProt Q9NPC1)
T1 sequence (Q9NPC1 whole entry): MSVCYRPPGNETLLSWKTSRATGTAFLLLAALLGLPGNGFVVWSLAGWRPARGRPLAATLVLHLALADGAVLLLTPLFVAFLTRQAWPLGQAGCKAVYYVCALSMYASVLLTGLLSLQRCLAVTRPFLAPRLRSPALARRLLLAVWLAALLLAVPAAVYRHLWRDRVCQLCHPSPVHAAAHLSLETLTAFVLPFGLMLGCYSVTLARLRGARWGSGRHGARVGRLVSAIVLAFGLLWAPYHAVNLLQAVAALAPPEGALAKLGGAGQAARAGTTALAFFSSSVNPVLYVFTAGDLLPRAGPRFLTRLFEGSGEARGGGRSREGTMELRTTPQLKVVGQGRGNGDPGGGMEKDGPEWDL

[2] = target: Leukotriene B4 receptor 1 (Homo sapiens, UniProt Q15722)
Leukotriene B4 receptor 1, sequence (Q15722 whole entry): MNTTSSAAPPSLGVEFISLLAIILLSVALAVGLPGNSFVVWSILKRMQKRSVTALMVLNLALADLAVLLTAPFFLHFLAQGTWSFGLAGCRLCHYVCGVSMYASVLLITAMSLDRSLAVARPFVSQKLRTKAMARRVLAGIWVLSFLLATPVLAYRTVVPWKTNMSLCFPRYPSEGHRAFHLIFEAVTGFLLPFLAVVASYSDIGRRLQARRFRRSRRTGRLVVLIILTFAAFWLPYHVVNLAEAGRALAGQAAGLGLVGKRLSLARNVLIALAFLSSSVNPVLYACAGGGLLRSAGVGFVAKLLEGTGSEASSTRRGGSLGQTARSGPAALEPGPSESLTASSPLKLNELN

Question: For `CCCCC[C@@H](O)/C=C/C=C\C/C=C\C/C=C\CCCC(=O)O`, which Ki [1] is on record?
Answer: 0.173 µM

Question: What about the Ki [2] of the same compound?
Answer: > 18 µM

Question: For `CCCCC/C=C\C\C=C/C=C/C=C/[C@@H](SC[C@H](N)C(=O)NCC(=O)O)[C@@H](O)CCCC(=O)O` [5S-hydroxy-6R-(S-cysteinylglycinyl)-7E,9E,11E,14Z-eicosatetraenoic acid], which Ki [1] is on record?
Answer: > 10 µM

Question: What about the Ki [2] of the same compound?
Answer: 4 µM

Question: `CCCCC/C=C\C[C@H](O)/C=C/c1cccc(C[C@H](O)CCCCO)n1` [(5R)-6-[6-[(1E,3S,5Z)-3-hydroxyundeca-1,5-dienyl]pyridin-2-yl]hexane-1,5-diol] was tested. Which Ki [1] did it give?
Answer: 5.43 µM

Question: What about the Ki [2] of the same compound?
Answer: 0.025 µM

Question: How did the Ki [1] turn out when `CCCCC/C=C\C\C=C/C=C/C=C/[C@@H](SC[C@H](N)C(=O)O)[C@@H](O)CCCC(=O)O` [(5S-(5R*,6S*(S*),7E,9E,11Z,14Z))-6-((2-Amino-2-carboxyethyl)thio)-5-hydroxy-7,9,11,14-eicosatetraenoic acid] was run?
Answer: 6 µM

Question: And the Ki [2]?
Answer: 2.37 µM

Question: What does the source list for `CCCCCC=CCC=CC=CC=CC(SCC(NC(=O)CCC(N)C(=O)O)C(=O)NCC(=O)O)C(O)CCCC(=O)O` (centres undefined) [CAS_5283121]?
Answer: Ki [1]: > 9 µM; Ki [2]: > 1.9 µM

Question: How did the Ki [1] turn out when `O=C(O)CCCC=CCC=CCC=CCC=CCCCCCO` [CAS_5283157] was run?
Answer: > 1 µM

Question: What about the Ki [2] of the same compound?
Answer: > 10 µM

Question: Which Ki [1] does the source give for `CCCCC/C=C\C/C=C\CC=CC=CC(=O)CCCC(=O)O` [ETE-5-Oxo] here?
Answer: > 1 µM

Question: And the Ki [2]?
Answer: > 1 µM

Question: How did the Ki [1] turn out when `CCCCC/C=C\C/C=C\C/C=C\C=C\C(O)CCCC(=O)O` [HETE-5(S)] was run?
Answer: 1 µM and 3 µM

Question: And the Ki [2]?
Answer: 1 µM and > 10 µM

Question: Which results are given for `CCCCCCCCC=CC=CC=CC1OC1CCCC(=O)OC` (centres undefined) [LTA3-ME]?
Answer: Ki [1]: > 10 µM; Ki [2]: 5 µM

Question: For `CC/C=C/CC=CCC=CC=CC=CC1OC1CCCC(=O)OC` (centres undefined) [LTA5-ME], which Ki [2] is on record?
Answer: > 10 µM

Question: With `CCCCC/C=C\C[C@@H](O)/C=C/C=C/C=C\[C@@H](O)CCCC(=O)NCCCN` [LTB4-3-aminopropylamide] as the compound, how does the Ki [1] read?
Answer: 1.23 µM

Question: And the Ki [2]?
Answer: 0.0051 µM

Question: How did the Ki [1] turn out when `O=C(O)CCC[C@H](O)\C=C/C=C/C=C/[C@H](O)C/C=C\CCCCCO` [LTB4-20-hydroxy] was run?
Answer: 0.041 µM

Question: What about the Ki [2] of the same compound?
Answer: 0.00054 µM

Question: With `CCCCCCCCC=CC=CC=CC(SCC(NC(=O)CCC(N)C(=O)O)C(=O)NCC(=O)O)C(O)CCCC(=O)O` (centres undefined) [LTC3] as the compound, how does the Ki [1] read?
Answer: > 4 µM

Question: What about the Ki [2] of the same compound?
Answer: > 14 µM

Question: What does the source list for `CC/C=C/C=C/CCC=CC=CC=CC(SCC(NC(=O)CCC(N)C(=O)O)C(=O)NCC(=O)O)C(O)CCCC(=O)O` (centres undefined) [LTC5]?
Answer: Ki [1]: 3 µM; Ki [2]: > 10 µM

Question: Which results are given for `CCCCCCCCC=CC=CC=CC(SCC(N)C(=O)NCC(=O)O)C(O)CCCC(=O)O` (centres undefined) [LTD3]?
Answer: Ki [1]: 1 µM; Ki [2]: > 10 µM

Question: How did the Ki [2] turn out when `CC/C=C/CC=CCC=CC=CC=CC(SCC(N)C(=O)NCC(=O)O)C(O)CCCC(=O)O` (centres undefined) [LTD5] was run?
Answer: > 10 µM

Question: What does the source list for `CCCCCCCCC=CC=CC=CC(SCC(N)C(=O)O)C(O)CCCC(=O)O` (centres undefined) [LTE3]?
Answer: Ki [1]: 4 µM; Ki [2]: > 10 µM

Question: Which Ki [1] does the source give for `CCCCCC=CCC=CCC=CCC#CCCCC(=O)O` [NSC_1777] here?
Answer: 1 µM

Question: Which Ki [1] does the source give for `CCCCCC=CCC=CC=CC=CC1OC1CCCC(=O)OC` (centres undefined) [NSC_126534] here?
Answer: > 10 µM

Question: What about the Ki [2] of the same compound?
Answer: > 10 µM

Question: With `CCCCCC(O)C=CC=CC=CC=CC(O)C(O)CCCC(=O)O` (centres undefined) [NSC_5280914] as the compound, how does the Ki [1] read?
Answer: 1.4 µM

Question: And the Ki [2]?
Answer: 1.44 µM

Question: How did the Ki [1] turn out when `CCCCCC=CCC=CC=CC=CC(SCC(NC(=O)CCC(N)C(=O)O)C(=O)O)C(O)CCCC(=O)O` (centres undefined) [NSC_5283124] was run?
Answer: 6 µM

Question: What about the Ki [2] of the same compound?
Answer: 5.7 µM

Question: For `CCC=CCC=CCC(O)C=CC=CC=CC(O)CCCC(=O)O` (centres undefined) [NSC_5283125], which Ki [1] is on record?
Answer: 0.0094 µM

Question: What about the Ki [2] of the same compound?
Answer: 0.0037 µM

Question: `CCCCCCC=CC(=O)C=CC=CCC=CCCCC(=O)O` [NSC_5283162] was tested. Which Ki [1] did it give?
Answer: 0.155 µM

Question: What about the Ki [2] of the same compound?
Answer: > 1 µM

Question: How did the Ki [1] turn out when `CCCCCC=CCC=CC=CC(O)CC=CCCCC(=O)O` (centres undefined) [NSC_5283163] was run?
Answer: > 1 µM

Question: What about the Ki [2] of the same compound?
Answer: > 30 µM

Question: With `CC(C)(O)c1ccccc1CCC(S)c1cccc(C=Cc2ccc3ccc(Cl)cc3n2)c1` (centres undefined) [NSC_5311297] as the compound, how does the Ki [1] read?
Answer: > 10 µM

Question: And the Ki [2]?
Answer: > 10 µM

Question: For `COc1cc(C(=O)NS(=O)(=O)c2ccccc2C)ccc1Cc1cn(C)c2ccc(NC(=O)OC3CCCC3)cc12` [cyclopentyl 3-(2-methoxy-4-((o-tolylsulfonyl)carbamoyl)benzyl)-1-methylindole-5-carbamate], which Ki [1] is on record?
Answer: > 10 µM

Question: And the Ki [2]?
Answer: 7.12 µM
